How the values were obtained:
Experiment in all cases: Field trial with maize, herbicidal action
Assay type in all cases: in vivo
Cassia obtusifolia = conditions: 925 g of a.s./ha; application 3-leaf stage; scoring 21 days after application
Experimental: (§1) Transgenic maize plants with a resistance to one or more herbicides (A) together with typical weed plants were grown in the open on 2×5 m plots under natural field conditions; alternatively, weed infestation occurred naturally when the maize plants were grown.
(§2) […] The damage to, and the development of, all aerial parts of the plants was recorded. Scoring was done on the basis of a percentage sale (100% action=all plants destroyed; 50% action=50% of the plants and green parts of the plants destroyed; 0% action=no recognizable effect=like control plot. The mean of the score values of in each case 4 plots was calculated.

Lolium multiflorum = conditions: 2.5 g of a.s./ha; application 2- to 4-leaf stage; scoring 26 days after application
Experimental: as §1, §2

Lamium amplexicaule = conditions: 2.5 g of a.s./ha; application 1-leaf stage; scoring 17 days after application
Experimental: as §1, §2

Fagopyrum esculentum = conditions: 2.5 g of a.s./ha; application 2- to 4-leaf stage; scoring 26 days after application
Experimental: as §1, §2

Row | SMILES | Herbicidal action (%) against Cassia obtusifolia (Cassia obtusifolia) | Herbicidal action (%) against Lolium multiflorum (Lolium multiflorum) | Herbicidal action (%) against Lamium amplexicaule (Lamium amplexicaule) | Herbicidal action (%) against Fagopyron esculentum (Fagopyrum esculentum)
1 | CCC(CC)Nc1c([N+](=O)[O-])cc(C)c(C)c1[N+](=O)[O-] [(B2.1), N-(1-ethylpropyl)-2,6-dinitro-3,4-xylidine] | 0% |  |  | 
2 | COc1nc(C)nc(NC(=O)NS(=O)(=O)c2cc(I)ccc2C(=O)O)n1 [(B2.3), 4-iodo-2-(4-methoxy-6-methyl-1,3,5-triazin-2-ylcarbamoylsulfamoyl)benzoic acid] |  | 84% | 55% | 85%

From patent publication US8772199B2, “Herbicidal compositions for tolerant or resistant maize crops” (Bayer Intellectual Property GmbH, priority 1998, dated 2014)
